We go through ten molecules from patent publication US9676796B2, “Tricyclic benzoxaborole compound, preparation method and use thereof” (DONG-A ST CO., LTD., priority 2013, dated 2017).

The structures appear in SMILES notation. ≈ marks a conversion by molar mass, not a printed value.

The test system of assay [1] is Klebsiella pneumoniae (K. pneumoniae). Nature of the assay: Antibacterial activity in vitro, agar plate dilution MIC. It counts as cell-based. As to conditions: clinical isolate, Mueller-Hinton agar dilution. How it is done: (§1) The antibacterial activity of the novel derivatives prepared by EXAMPLE 1 to 5 was evaluated in vitro by agar plate dilution method using Mueller-Hinton agar according to the NCCLS (National Committee for Clinical Laboratory Standards. 2000. Methods for dilution antimicrobial susceptibility tests for bacteria that grow aerobically. Approved standard, NCCLS document M7-A5, 5th ed, vol 20, no. 2. National Committee for Clinical Laboratory Standards, Wayne, Pa.). The test strains were clinical isolates from patients in general hospital in Korea from 2010 to 2013. The antibacterial activity was examined against important gram-negative bacteria including carbapenem-resistant Acinetobacter baumannii (A. baumannii), carbapenem-resistant Pseudomonas aeruginosa (P. aeruginosa), Escherichia coli (E. coli), and Klebsiella pneumonia (K. pneumonia) and was expressed as minimum inhibitory concentrations (MIC, μg/ml) in table 1.
(§2) The antibacterial activity of compounds (in Preparation Examples 1 to 4) and meropenem (MEPM, carbapenem-based antibiotics) were examined according to the same method shown as EXPERIMENTAL EXAMPLE 1.
(In general: In agar dilution, organisms are placed on agar that contains the substance at set levels.)

The test system of assay [2] is carbapenem-resistant Pseudomonas aeruginosa (P. aeruginosa). Described as above. In kind it is cell-based. As to conditions: carbapenem-resistant clinical isolate, Mueller-Hinton agar dilution. How it is done:
as §1, §2

Assay [3] relates to P. vulgaris. The assay is described as above. In kind it is cell-based. As to conditions: Proteus vulgaris; clinical isolate, Mueller-Hinton agar dilution. As for the experimental part:
as §1, §2

The subject of assay [4] is C. freundii. The assay is described as above. The conditions noted are these: Citrobacter freundii; clinical isolate, Mueller-Hinton agar dilution. In kind it is cell-based. As for the experimental part:
as §1, §2

Assay [5] relates to Escherichia coli (E. coli). The description is as above. In kind it is cell-based. As to conditions: clinical isolate, Mueller-Hinton agar dilution. As for the experimental part: as §1, §2
Assay [6] relates to M. morganii. The assay is described as above. The conditions noted are these: Morganella morganii; clinical isolate, Mueller-Hinton agar dilution. It counts as cell-based. As for the experimental part: as §1, §2
Assay [7] deals with K. oxytoca. The description is as above. In kind it is cell-based. The conditions noted are these: Klebsiella oxytoca; clinical isolate, Mueller-Hinton agar dilution. How it is done: as §1, §2
The subject of assay [8] is carbapenem-resistant Acinetobacter baumannii (A. baumannii). The description is as above. As to conditions: carbapenem-resistant clinical isolate, Mueller-Hinton agar dilution. It counts as cell-based. As for the experimental part:
as §1, §2

For assay [9], the system named is E. cloacae. The description is as above. It counts as cell-based. As to conditions: Enterobacter cloacae; clinical isolate, Mueller-Hinton agar dilution. As for the experimental part: as §1, §2
In assay [10] the test system is P. mirabilis. Described as above. In kind it is cell-based. The conditions noted are these: Proteus mirabilis; clinical isolate, Mueller-Hinton agar dilution. As for the experimental part:
as §1, §2

The subject of assay [11] is Carbapenem-resistant Acinetobacter baumannii BAA-1605. Nature of the assay: Antibacterial activity in animal infection model (mouse systemic infection). It counts as in vivo. The conditions noted are these: for ED50: Acinetobacter baumannii, BAA1605, read-out: ED50 (dose needed for the 50 percentage survival rate); for ED50 times as low as ED50 value of Compound C: mouse systemic infection, A. baumannii BAA-1605, oral. As for the experimental part: Antibacterial activity of the compounds from the present invention was examined in vivo according to the method described in S. Choi et al (Antimicrob. Agents Chemother 56 (9) 4713-4717. 2012).
Carbapenem-resistant Acinetobacter baumannii BAA-1605 was used as test strain and the test strain was intraperitoneally injected into mouse to cause the systemic infection. After 1 hour of infection, the compounds of EXAMPLEs 1, 2, 3, 5 and the control compounds were administrated orally to the mice.

Assay [12] has as its system E. aerogenes. Nature of the assay: Antibacterial activity in vitro, agar plate dilution MIC. It counts as cell-based, Enterobacter aerogenes. As to conditions: Klebsiella aerogenes; clinical isolate, Mueller-Hinton agar dilution. How it is done: as §1, §2
Assay [13] has as its system S. marcescens. The description is as above. It counts as cell-based. As to conditions: Serratia marcescens; clinical isolate, Mueller-Hinton agar dilution. How it is done:
as §1

The subject of assay [14] is N. gonorrhoeae. The assay is described as above. It counts as cell-based. As to conditions: Neisseria gonorrhoeae; clinical isolate, Mueller-Hinton agar dilution.

With `Cl.NCC1OB2OCCOc3cccc1c32` (centres unmarked) [Compound A, (7,8-dihydro-2H-1,6,9-trioxa-9a-borabenzo[cd]azulen-2-yl)methanamine, reference compound], the MIC worked out at 4 µg/mL in assay [1]; 8 µg/mL in [2]; 32 µg/mL in [3]; 1 µg/mL in [4]; 2 µg/mL in assay [5]; 2 µg/mL in [6]. The MIC in assay [7] is 2 µg/mL; in assay [8], over 128 µg/mL; in assay [9] it was 2 µg/mL; in [10] it was 8 µg/mL; in [12], 2 µg/mL. The ED50 in assay [11] was over 20 mg/kg.

For the molecule `CC1COB2OC(CN)c3cccc(c32)O1.Cl` (centres unmarked) [EXAMPLE 1, (7-methyl-7,8-dihydro-2H-1,6,9-trioxa-9a-borabenzo[cd]azulen-2-yl)methanamine hydrochloride], the MIC was 2 µg/mL in [1]; 32 µg/mL in [2]; 4 µg/mL in [3]; 1 µg/mL in assay [4]; 2 µg/mL in assay [5]; 2 µg/mL in assay [6]. Moreover, the MIC in [7] was 2 µg/mL; in assay [8], 4 µg/mL; in assay [9] it was 2 µg/mL; in assay [10], 2 µg/mL; in assay [13], 4 µg/mL; in assay [12], 4 µg/mL. This molecule displayed an MIC in assay [14] of 2 µg/mL. Further, in assay [11], the median effective dose (ED50) is 1.75 mg/kg. Moreover, in assay [11], the “ED50 times as low as ED50 value of Compound C” value (shortened to “ED50 times as low as ED50 value”) was determined as 5.18 times.

As for `Cl.NCC1OB2OCC(CO)Oc3cccc1c32` (centres unmarked) [compound D, (2-(aminomethyl)-7,8-dihydro-2H-1,6,9-trioxa-9a-borabenzo[cd]azulen-7-yl)methanol hydrochloride, reference compound], the MIC in assay [1] was 16 µg/mL; in [2] it was 64 µg/mL; in assay [3], 16 µg/mL; in [4], 4 µg/mL; in [5], 8 µg/mL; in assay [6], 8 µg/mL. Also, the MIC stood at 8 µg/mL in assay [7]; 16 µg/mL in assay [8]; 8 µg/mL in assay [9]; 16 µg/mL in assay [10]; 8 µg/mL in [12].

Turning to `Cl.NC[C@H]1OB2O[C@H](CO)COc3cccc1c32` [Compound C, ((2S,8R)-2-(aminomethyl)-7,8-dihydro-2H-1,6,9-trioxa-9a-borabenzo[cd]azulen-8-yl)methanol hydrochloride, reference compound], the MIC in [1] stood at 2 µg/mL; in assay [2], 8 µg/mL; in assay [3], 8 µg/mL; in assay [4], 2 µg/mL; in assay [5], 2 µg/mL; in [6], 2 µg/mL. The MIC in assay [7] is 2 µg/mL; in [8], 4 µg/mL; in assay [9], 2 µg/mL; in assay [10], 8 µg/mL; in assay [12], 4 µg/mL. Moreover, the ED50 in assay [11] came out at 9.07 mg/kg.

Consider `C[C@@H]1COB2O[C@H](CN)c3cccc(c32)O1.Cl` [EXAMPLE 3, ((2S,7R)-7-methyl-7,8-dihydro-2H-1,6,9-trioxa-9a-borabenzo[cd]azulen-2-yl)methanamine hydrochloride], for which the MIC in [1] was 2 µg/mL; in [2], 16 µg/mL; in assay [3] it was 2 µg/mL; in [4] it was 1 µg/mL; in assay [5] it was 1 µg/mL; in [6], 1 µg/mL. In addition, the MIC in assay [7] turned out to be 1 µg/mL; in assay [8], 1 µg/mL; in [9] it was 1 µg/mL; in [10], 2 µg/mL; in [13], 4 µg/mL; in assay [12], 2 µg/mL. In assay [14], the MIC worked out at 0.5 µg/mL. Moreover, in [11], the ED50 stood at 0.909 mg/kg. In addition, the “ED50 times as low as ED50 value” value in [11] came to 9.98 times.

As to `C[C@@H](O)[C@H]1C(=O)N2C(C(=O)O)=C(S[C@@H]3CN[C@H](C(=O)N(C)C)C3)[C@H](C)[C@H]12` [MEPM, meropenem, reference compound], the MIC in assay [1] was under 0.0313 µg/mL; in assay [2], 32 µg/mL (≈ 83.4 µM); in assay [3], 0.0625 µg/mL (≈ 0.163 µM); in [4], under 0.0313 µg/mL; in assay [5], under 0.0313 µg/mL; in assay [6], 0.125 µg/mL (≈ 0.326 µM). The minimal inhibitory concentration (MIC) was under 0.0313 µg/mL in [7]; 32 µg/mL (≈ 83.4 µM) in [8]; under 0.0313 µg/mL in assay [9]; 0.0625 µg/mL (≈ 0.163 µM) in [10]; under 0.0313 µg/mL in assay [12].

With `C[C@H]1COB2O[C@H](CN)c3cccc(c32)O1.Cl` [EXAMPLE 5, ((2S, 7S)-7-methyl-7,8-dihydro-2H-1,6,9-trioxa-9a-borabenzo[cd]azulen-2-yl)methanamine hydrochloride], the MIC in [1] amounted to 2 µg/mL; in [2], 8 µg/mL; in assay [3] it was 2 µg/mL; in assay [4], 1 µg/mL; in assay [5], 1 µg/mL; in assay [6] it was 0.5 µg/mL. Also, the MIC came to 2 µg/mL in assay [7]; 4 µg/mL in assay [8]; 1 µg/mL in assay [9]; 2 µg/mL in assay [10]; 4 µg/mL in [13]; 4 µg/mL in assay [12]. Moreover, the MIC in assay [14] amounted to 2 µg/mL. In assay [11], the ED50 came to 1.36 mg/kg. For the same molecule, in assay [11], the “ED50 times as low as ED50 value” value came to 6.69 times.

Regarding `C[C@@H]1COB2O[C@H](CN)c3cccc(c32)O1` [compound 4, ((2S,7R)-7-methyl-7,8-dihydro-2H-1,6,9-trioxa-9a-borabenzo[cd]azulen-2-yl) methanamine], the MIC in assay [1] was determined as 1 µg/mL (≈ 4.57 µM); in [2], 8 µg/mL (≈ 36.5 µM); in assay [3], 1 µg/mL (≈ 4.57 µM); in assay [4], 0.5 µg/mL (≈ 2.28 µM); in assay [5], 1 µg/mL (≈ 4.57 µM); in assay [6] it was 0.5 µg/mL (≈ 2.28 µM). The MIC in [7] amounted to 1 µg/mL (≈ 4.57 µM); in assay [8] it was 1 µg/mL (≈ 4.57 µM); in assay [9], 1 µg/mL (≈ 4.57 µM); in assay [10], 1 µg/mL (≈ 4.57 µM); in [13], 2 µg/mL (≈ 9.13 µM); in assay [12], 1 µg/mL (≈ 4.57 µM). The lowest concentration to inhibit growth in assay [14] (MIC) was 0.5 µg/mL (≈ 2.28 µM).

For the molecule `CC1COc2cccc3c2B(O1)OC3CN.Cl` (centres unmarked) [Compound B, (8-methyl-7,8-dihydro-2H-1,6,9-trioxa-9a-borabenzo[cd]azulen-2-yl)methanamine hydrochloride, reference compound], the MIC in assay [1] was determined as 4 µg/mL; in assay [2] it was 64 µg/mL; in assay [3], 16 µg/mL; in assay [4] it was 1 µg/mL; in [5], 2 µg/mL; in [6], 4 µg/mL. In addition, the MIC came to 2 µg/mL in assay [7]; 8 µg/mL in assay [8]; 2 µg/mL in [9]; 8 µg/mL in [10]; 2 µg/mL in [12]. Also, the ED50 in [11] is over 20 mg/kg.

For the molecule `CC1COB2O[C@H](CN)c3cccc(c32)O1.Cl` (stereo partly drawn) [EXAMPLE 2, ((2S)-7-methyl-7,8-dihydro-2H-1,6,9-trioxa-9a-borabenzo[cd]azulen-2-yl)methanamine hydrochloride], the MIC in assay [1] was 2 µg/mL; in [2], 8 µg/mL; in assay [3] it was 2 µg/mL; in assay [4] it was 1 µg/mL; in [5], 1 µg/mL; in [6], 1 µg/mL. The MIC in [7] is 2 µg/mL; in assay [8], 2 µg/mL; in assay [9], 1 µg/mL; in assay [10], 2 µg/mL; in [13], 4 µg/mL; in [12] it was 2 µg/mL. The molecule further came in with an MIC in assay [14] of 1 µg/mL. In assay [11], the ED50 came to 1.36 mg/kg. In addition, in assay [11], the “ED50 times as low as ED50 value” value came out at 6.69 times.

Broadly, the MIC is the least concentration at which growth counts as inhibited. The ED50 is the dose at which the effect has come halfway, by size or by number of responders.
